Reference: PMC3040260 (Biochemistry, 2011)
Where “and” joins values, the source holds several entries; their conditions need not be identical. Equal entries are not always repeated. Values belong to the compound of their own block, whether it stands above or below them.

Legend:
[1] = molecular target: T1, PaMTIP (Pseudomonas aeruginosa, UniProt Q9HZK1); type: biochemical
[2] = molecular target: T1, PaMTIP; test: PaMTIP inhibition assay; type: biochemical
[3] = phosphorolysis, 25 °C, 100 mM Hepes pH 7.4, 100 mM phosphate
[4] = initial phase, 1 nM PaMTIP, 2 mM MTI, 25 °C, pH 7.4
[5] = second binding phase after slow-onset, 1 nM PaMTIP, 2 mM MTI, 25 °C, pH 7.4

T1 sequence (Q9HZK1 whole entry): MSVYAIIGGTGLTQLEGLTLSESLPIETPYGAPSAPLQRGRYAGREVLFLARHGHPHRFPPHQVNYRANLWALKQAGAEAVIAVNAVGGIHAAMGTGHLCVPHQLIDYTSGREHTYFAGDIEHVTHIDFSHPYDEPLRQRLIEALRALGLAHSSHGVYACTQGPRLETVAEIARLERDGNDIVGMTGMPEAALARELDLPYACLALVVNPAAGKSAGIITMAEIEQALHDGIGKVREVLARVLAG

Compound: 5'-methylthioadenosine [MTA]
kcat [1, 3]: < 10^−4 s^−1
Ki ([2]; competitive inhibitor of MTI, 200 µM MTI): 70000 ± 20000 nM

Compound: 5'-methylthioinosine [MTI]
slow hydrolysis rate ([1]; hydrolysis to hypoxanthine and 5-methylthioribose): 3.8e-05 s⁻¹
Km [1, 3]: 2.6 ± 0.4 µM
kcat [1, 3]: 4.8 s⁻¹ and 4.8 ± 0.2 s⁻¹

Compound: CSC[C@H]1CN(Cc2c[nH]c3c(=O)[nH]cnc23)C[C@@H]1O [MT-DADMe-ImmH, 5'-methylthio-DADMe-ImmH]
Ki [2, 4]: 0.8 ± 0.1 nM
Ki [2, 5]: 0.34 ± 0.02 nM

Compound: CSC[C@H]1N[C@@H](c2c[nH]c3c(=O)[nH]cnc23)[C@H](O)[C@@H]1O [MT-ImmH, 5'-methylthio-ImmH]
fold tighter binding than MT-DADMe-ImmH (Ki*) ([2]; PaMTIP): 4 fold
Ki [2, 4]: 0.84 ± 0.05 nM
Ki [2, 5]: 0.076 ± 0.005 nM

slow-onset inhibition ([2]; PaMTIP): induces slow-onset inhibition
Ki [2, 4]: 0.66 ± 0.09 nM
Ki [2, 5]: 0.035 ± 0.003 nM
Compound: O=c1[nH]cnc2c([C@@H]3N[C@H](CSc4ccccc4)[C@@H](O)[C@H]3O)c[nH]c12 [PhT-ImmH, 5'-phenylthio-ImmH]

Compound: Nc1ncnc2c1ncn2[C@@H]1O[C@H](CO)[C@@H](O)[C@H]1O [adenosine]
kcat [1, 3]: 0.0549 s⁻¹ and 0.0549 ± 0.0005 s⁻¹
fold decrease of kcat/Km in comparison with MTI ([1]; relative to MTI): 750 fold

Compound: O=c1[nH]cnc2c1ncn2[C@@H]1O[C@H](CO)[C@@H](O)[C@H]1O [inosine]
kcat [1, 3]: 0.57 s⁻¹ and 0.57 ± 0.04 s⁻¹
